US20020137929A1, “1 - (3-heterocyclylphenyl) isothiourea, -isourea, -guanidine and -amidine herbicidal agents” (Intellectual Property Department, BASF Aktiengesellschaft, priority 1998, published 2002)

Legend:
ZEAMX (Corn, Field) = assay: Postemergence herbicidal evaluation; type: in vivo, Zea mays; details: postemergence
How it was run: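 Rate range approx. 0.0156–0.500 kg/ha. Foliar application at 40 psi to ~2-week seedlings; surfactant 0.5% TWEEN 20 in 50/50 acetone/water. Evaluation 4–5 wk post-treatment by 0–9 visual injury score, means of replicate tests.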

ABUTH (Velvetleaf) = assay: Preemergence herbicidal evaluation; type: in vivo, Abutilon theophrasti; details: rated 4-5 weeks after treatment, rating scale 0-9
How it was run: (§1)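 Scores use a 0–9 visual scale covering stand, vigor, malformation, size and chlorosis relative to controls, rated four to five weeks after treatment. Before emergence, soil-planted seeds were sprayed with compound in aqueous acetone at roughly 0.0156–0.500 kg/ha and held in the greenhouse.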

AMBEL (Ragweed, Common) = assay: Preemergence herbicidal evaluation; type: in vivo, Ambrosia artemisifolia; details: rated 4-5 weeks after treatment, rating scale 0-9
How it was run: as §1

[1] = tested on: GLXMAW (Soybean, Williams); assay: Preemergence herbicidal evaluation; type: in vivo, Glycine max, (L.) Merr. cv Williams; details: rated 4-5 weeks after treatment, rating scale 0-9
How it was run: as §1

ORYSAT (Rice, Tebonnet) = assay: Rice tolerance to post-transplant applications, flooded paddy conditions (Table III); type: in vivo, Oryza sativa, (L.) Tebonnet; details: in vivo
Procedure: Results of herbicide evaluation are expressed on a rating scale (0-9). The scale is based upon a visual observation of plant stand, vigor, malformation, size, chlorosis and overall plant appearance as compared with a control.
The tolerance of transplanted rice to post-transplanted herbicide applications is determined as follows: two ten-day-old rice seedlings (cv. Tebonnet) are transplanted into silt loam soil in 32 oz. plastic containers with a diameter of 10.5 cm and no drainage holes. After transplanting, the containers are flooded and the water level is maintained at 1.5 to 3 cm above the soil surface. Three days after transplanting, the flooded soil surface of the containers is treated with the selected aqueous/acetone 50/50 v/v mixture containing the test compounds to provide the equivalent of about 0.0313 to 0.500 kg/ha of active ingredient. The treated containers are placed on greenhouse benches, watered such that the water level is maintained as stated above, and cared for in accordance with conventional greenhouse procedures. Three to four weeks after treatment, the test is terminated and each container is examined and herbicidal effect rated according to the rating system provided in Example 37. The compounds evaluated are reported by compound number given in Example 37.
Plant species employed in this example are reported by header abbreviation, common name and scientific name.

Row | SMILES | Herbicidal rating ZEAMX (ZEAMX (Corn, Field); rate 0.0156 kg/ha) | Herbicidal rating ZEAMX (ZEAMX (Corn, Field); rate 0.0313 kg/ha) | Herbicidal rating ZEAMX (ZEAMX (Corn, Field); rate 0.0625 kg/ha) | Preemergence herbicidal rating ABUTH (ABUTH (Velvetleaf); rate 0.0156 kg/ha) | Preemergence herbicidal rating ABUTH (ABUTH (Velvetleaf); rate 0.0313 kg/ha) | Preemergence herbicidal rating ABUTH (ABUTH (Velvetleaf); rate 0.0625 kg/ha) | Preemergence herbicidal rating ABUTH (ABUTH (Velvetleaf); rate 0.1250 kg/ha) | Preemergence herbicidal rating ABUTH (ABUTH (Velvetleaf); rate 0.2500 kg/ha) | Preemergence herbicidal rating AMBEL (AMBEL (Ragweed, Common); rate 0.0156 kg/ha) | Preemergence herbicidal rating AMBEL (AMBEL (Ragweed, Common); rate 0.0313 kg/ha) | Preemergence herbicidal rating AMBEL (AMBEL (Ragweed, Common); rate 0.0625 kg/ha) | Preemergence herbicidal rating AMBEL (AMBEL (Ragweed, Common); rate 0.1250 kg/ha) | Preemergence herbicidal rating AMBEL (AMBEL (Ragweed, Common); rate 0.2500 kg/ha) | Preemergence herbicidal rating GLXMAW ([1]; rate 0.0156 kg/ha) | Preemergence herbicidal rating GLXMAW ([1]; rate 0.0313 kg/ha) | Preemergence herbicidal rating GLXMAW ([1]; rate 0.0625 kg/ha) | Preemergence herbicidal rating GLXMAW ([1]; rate 0.1250 kg/ha) | Preemergence herbicidal rating GLXMAW ([1]; rate 0.2500 kg/ha) | herbicidal effect rating, ORYSAT (rice tolerance) (ORYSAT (Rice, Tebonnet))
1 | CN(C)c1ccc(CN2C(=O)CSC2=Nc2cc(-n3c(=O)cc(C(F)(F)F)n(C)c3=O)c(F)cc2Cl)cc1 [Compound 138, 3-{4-Chloro-5-{{3-[p-(dimethylamino)benzyl]-4-oxo-2-thiazolidinylidene}amino}-2-fluorophenyl}-1-methyl-6-(trifluoromethyl)-2,4(1H,3H)-pyrimidinedione] | 4.0 | 4.5 | 5.0 | 0.0 | 0.0 | 0.0 | 9.0 | 9.0 | 0.0 | 0.0 | 0.0 | 1.0 | 2.0 | 0.0 | 0.0 | 0.0 | 0.0 | 1.0 | 3.0
2 | Cn1c(C(F)(F)F)cc(=O)n(-c2cc(N=C3SCC(=O)N3Cc3ccc(C(F)(F)F)cc3)c(Cl)cc2F)c1=O [Compound 141, 3-{4-Chloro-2-fluoro-5-{{3-[p-(trifluoromethyl)benzyl]-4-oxo-2-thiazolidinylidene}-amino}phenyl}-1-methyl-6-(trifluoromethyl)-2,4 (1H, 3H)-pyrimidinedione] | 4.0 | 4.5 | 5.0 | 0.0 | 0.0 | 0.0 | 4.0 | 9.0 | 0.0 | 0.0 | 0.0 | 0.0 | 4.0 | 0.0 | 0.0 | 0.0 | 0.0 | 3.0 | 0.0
3 | Cc1ccc(CN2C(=O)CSC2=Nc2cc(-n3c(=O)cc(C(F)(F)F)n(C)c3=O)c(F)cc2Cl)cc1Cl [Compound 149, 3-{4-Chloro-5-{[3-(3-chloro-4-methylbenzyl)-4-oxo-2-thiazolidinylidene]amino}-2-fluorophenyl}-1-methyl-6-(trifluoromethyl)-2,4(1H,3H)-pyrimidinedione] | 4.0 | 4.5 | 4.5 |  |  |  | 3.0 | 7.0 |  |  |  | 0.0 | 0.0 |  |  |  | 3.0 | 7.0 | 0.0
4 | CCOC(=O)CN1C(=O)C(COC)SC1=Nc1cc(-n2c(=O)cc(C(F)(F)F)n(C)c2=O)c(F)cc1Cl (stereo not shown) [Compound 156, Ethyl 2-{{2-chloro-5-[3,6-dihydro-3-methyl-2,6-dioxo-4-(trifluoromethyl)-1(2H)-pyrimidinyl]-4-fluorophenyl}imino}-5-(methoxymethyl)-4-oxo-3-thiazolidine-acetate] | 4.5 | 4.5 | 4.5 |  | 4.0 | 9.0 | 9.0 | 9.0 |  | 0.0 | 0.0 | 5.0 | 9.0 |  | 0.0 | 0.0 | 0.0 | 7.0 | 3.0
